System: 883617-216-R-J1-PDC tumor spheroids, viability
Test: Anticancer human tumor 883617-216-R-J1-PDC patient-derived bladder carcinoma cell line growth inhibition [PI3K]
Settings: spheroids with HUVEC and MSC; for IC50: curve of first compound; for viability, T/C: stronger effect = lower value
Outline: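 Stroma-containing spheroids: tumor line, pooled-donor HUVEC, hMSC. Treatments: targeted agents with PI3K inhibitors. Dosing: clinically relevant, half-log spacing, 10 microM ceiling without known Cmax. Read-out: cell viability.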

[1] = second compound 0.0316 µM, first compound 0.0316 µM
[2] = second compound 0.0316 µM, first compound 0.1 µM
[3] = second compound 0.0316 µM, first compound 0.316 µM
[4] = second compound 0.0316 µM, first compound 1 µM
[5] = second compound 0.0316 µM, first compound 3.16 µM
[6] = second compound 0.0316 µM, first compound 10 µM
[7] = second compound 0.1 µM, first compound 0.0316 µM
[8] = second compound 0.1 µM, first compound 0.1 µM
[9] = second compound 0.1 µM, first compound 0.316 µM
[10] = second compound 0.1 µM, first compound 1 µM
[11] = second compound 0.1 µM, first compound 3.16 µM
[12] = second compound 0.1 µM, first compound 10 µM
[13] = second compound 0.316 µM, first compound 0.0316 µM
[14] = second compound 0.316 µM, first compound 0.1 µM
[15] = second compound 0.316 µM, first compound 0.316 µM
[16] = second compound 0.316 µM, first compound 1 µM
[17] = second compound 0.316 µM, first compound 3.16 µM
[18] = second compound 0.316 µM, first compound 10 µM
[19] = second compound 1 µM, first compound 0.0316 µM
[20] = second compound 1 µM, first compound 0.1 µM
[21] = second compound 1 µM, first compound 0.316 µM
[22] = second compound 1 µM, first compound 1 µM
[23] = second compound 1 µM, first compound 3.16 µM
[24] = second compound 1 µM, first compound 10 µM
[25] = second compound 0.00316 µM, first compound 0.0316 µM
[26] = second compound 0.00316 µM, first compound 0.1 µM
[27] = second compound 0.00316 µM, first compound 0.316 µM
[28] = second compound 0.00316 µM, first compound 1 µM
[29] = second compound 0.00316 µM, first compound 3.16 µM
[30] = second compound 0.00316 µM, first compound 10 µM
[31] = second compound 0.01 µM, first compound 0.0316 µM
[32] = second compound 0.01 µM, first compound 0.1 µM
[33] = second compound 0.01 µM, first compound 0.316 µM
[34] = second compound 0.01 µM, first compound 1 µM
[35] = second compound 0.01 µM, first compound 3.16 µM
[36] = second compound 0.01 µM, first compound 10 µM
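Also: spheroids exposed to agents for 7 days before the viability read.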

CC(C)NCC(C(=O)N1CCN(c2ncnc3c2C(C)CC3O)CC1)c1ccc(Cl)cc1 (stereo unspecified) + Cc1nc(NC(=O)N2CCCC2C(N)=O)sc1-c1ccnc(C(C)(C)C(F)(F)F)c1
IC50 (second compound 0.0316 µM): 403 nM | IC50 (second compound 0.1 µM): 213 nM | IC50 (second compound 0.316 µM): < 31.6 nM | IC50 (second compound 1 µM): < 31.6 nM | IC50 (second compound 3.16 µM): < 31.6 nM | IC50 (second compound 10 µM): < 31.6 nM | viability, T/C [1]: 77% | viability, T/C [2]: 67.7% | viability, T/C [3]: 57.6% | viability, T/C [4]: 27.9% | viability, T/C [5]: 13.8% | viability, T/C [6]: 8.01% | viability, T/C [7]: 72.8% | viability, T/C [8]: 60.1% | viability, T/C [9]: 45.5% | viability, T/C [10]: 26.7% | viability, T/C [11]: 16.2% | viability, T/C [12]: 6.45% | viability, T/C [13]: 37.7% | viability, T/C [14]: 41% | viability, T/C [15]: 36.6% | viability, T/C [16]: 22.6% | viability, T/C [17]: 10.9% | viability, T/C [18]: 4.92% | viability, T/C [19]: 30.4% | viability, T/C [20]: 29.9% | viability, T/C [21]: 24.4% | viability, T/C [22]: 15.2% | viability, T/C [23]: 8.01% | viability, T/C [24]: 4.96% | viability, T/C (second compound 3.16 µM, first compound 0.0316 µM): 17.9% | viability, T/C (second compound 3.16 µM, first compound 0.1 µM): 10.5% | viability, T/C (second compound 3.16 µM, first compound 0.316 µM): 10.3% | viability, T/C (second compound 3.16 µM, first compound 1 µM): 9.2% | viability, T/C (second compound 3.16 µM, first compound 3.16 µM): 8.98% | viability, T/C (second compound 3.16 µM, first compound 10 µM): 3.73% | viability, T/C (second compound 10 µM, first compound 0.0316 µM): 7.03% | viability, T/C (second compound 10 µM, first compound 0.1 µM): 5.88% | viability, T/C (second compound 10 µM, first compound 0.316 µM): 5.22% | viability, T/C (second compound 10 µM, first compound 1 µM): 5.21% | viability, T/C (second compound 10 µM, first compound 3.16 µM): 3.1% | viability, T/C (second compound 10 µM, first compound 10 µM): 2.33%

C[C@@H](NC(=O)c1ncnc(N)c1Cl)c1ncc(C(=O)Nc2cc(C(F)(F)F)c(Cl)cn2)s1 + CC(Nc1ccc2c(c1)OCCn1cc(N3C(=O)OCC3C(F)F)nc1-2)C(N)=O
IC50 (second compound 0.00316 µM): > 10000 nM | IC50 (second compound 0.01 µM): > 10000 nM | IC50 (second compound 0.0316 µM): 6340 nM | IC50 (second compound 0.1 µM): 366 nM | IC50 (second compound 0.316 µM): < 31.6 nM | IC50 (second compound 1 µM): < 31.6 nM | viability, T/C [25]: 86.3% | viability, T/C [26]: 78.3% | viability, T/C [27]: 88.9% | viability, T/C [28]: 99.8% | viability, T/C [29]: 80% | viability, T/C [30]: 70.8% | viability, T/C [31]: 81.2% | viability, T/C [32]: 89.4% | viability, T/C [33]: 74.6% | viability, T/C [34]: 86.2% | viability, T/C [35]: 70.6% | viability, T/C [36]: 63.6% | viability, T/C [1]: 72.2% | viability, T/C [2]: 73.6% | viability, T/C [3]: 65.3% | viability, T/C [4]: 58.8% | viability, T/C [5]: 55.4% | viability, T/C [6]: 47.1% | viability, T/C [7]: 42.4% | viability, T/C [8]: 49.2% | viability, T/C [9]: 61.8% | viability, T/C [10]: 42.3% | viability, T/C [11]: 36.7% | viability, T/C [12]: 32.3% | viability, T/C [13]: 26.1% | viability, T/C [14]: 22.4% | viability, T/C [15]: 26.1% | viability, T/C [16]: 27.4% | viability, T/C [17]: 27.7% | viability, T/C [18]: 17.9% | viability, T/C [19]: 18.2% | viability, T/C [20]: 15.2% | viability, T/C [21]: 16.3% | viability, T/C [22]: 16.9% | viability, T/C [23]: 16.6% | viability, T/C [24]: 12.5%

CNC(=O)c1ccc(N2C(=S)N(c3ccc(C#N)c(C(F)(F)F)c3)C(=O)C2(C)C)cc1F + CC(Nc1ccc2c(c1)OCCn1cc(N3C(=O)OCC3C(F)F)nc1-2)C(N)=O
IC50 (second compound 0.00316 µM): > 10000 nM | IC50 (second compound 0.01 µM): > 10000 nM | IC50 (second compound 0.0316 µM): > 10000 nM | IC50 (second compound 0.1 µM): < 31.6 nM | IC50 (second compound 0.316 µM): < 31.6 nM | IC50 (second compound 1 µM): < 31.6 nM | viability, T/C [25]: 94.3% | viability, T/C [26]: 78.7% | viability, T/C [27]: 97.5% | viability, T/C [28]: 104% | viability, T/C [29]: 82.2% | viability, T/C [30]: 62.4% | viability, T/C [31]: 90.3% | viability, T/C [32]: 74.3% | viability, T/C [33]: 82.6% | viability, T/C [34]: 97.5% | viability, T/C [35]: 82.3% | viability, T/C [36]: 63.4% | viability, T/C [1]: 61.1% | viability, T/C [2]: 62.5% | viability, T/C [3]: 59% | viability, T/C [4]: 75.8% | viability, T/C [5]: 79.8% | viability, T/C [6]: 44.8% | viability, T/C [7]: 35.2% | viability, T/C [8]: 39.1% | viability, T/C [9]: 44.9% | viability, T/C [10]: 41.9% | viability, T/C [11]: 42.5% | viability, T/C [12]: 27.9% | viability, T/C [13]: 20.5% | viability, T/C [14]: 23.9% | viability, T/C [15]: 21.2% | viability, T/C [16]: 26.2% | viability, T/C [17]: 48.8% | viability, T/C [18]: 19.3% | viability, T/C [19]: 16.9% | viability, T/C [20]: 11.8% | viability, T/C [21]: 16.3% | viability, T/C [22]: 19.5% | viability, T/C [23]: 17.2% | viability, T/C [24]: 12.3%
